Results reported in US20220305121A1, “N-ARYL SULFONAMIDE DERIVATIVES AS VACCINE ADJUVANT” (The Regents of the University of California, priority 2019, published 2022).
pEC50: −log10 of the molar value. Entries after “also recorded” stand apart in the source; their conditions may differ.

Columns and labels:
[1] = tested on: THP-1 cells; assay: Cell viability assay (MTT); format: cell-based; conditions: compound 5 μM, 18 hours incubation; normalized to DMSO as 100%; mean
Outline: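 Cells at 10^5/well in RPMI with 10% FBS were exposed to compound at 5 μM final (0.05% DMSO) for 18 h. MTT (0.5 mg/mL) then added for 4-6 h, cells lysed overnight in SDS/HCl, absorbance read at 570 nm against 650 nm reference.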

[2] = tested on: NF-κB; assay: Measurement of NF-κB activation using THP1-Blue NF-κB cells (SEAP reporter, LPS as primary stimulus); format: cell-based; conditions: for activity at 5 µM: compound 5 μM + LPS, 20 hour incubation, two point normalized: compound 1 + LPS = 200%, LPS = 100%, mean
Outline: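 THP1-Blue NF-κB cells (10^5/well, RPMI + 10% FBS) were co-treated with LPS 10 μg/mL and compound 5 μM (final, […]) for 20 h. Supernatant SEAP was read by QuantiBlue colorimetry at 630 nm. Two-point normalization set LPS alone to 100% and compound 1+LPS to 200%.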

[3] = tested on: C57BL/6 (wild-type, WT) mice; assay: In vivo adjuvant activity study (ovalbumin + MPLA + compound, OVA-specific IgG by ELISA); conditions: coimmunization with MPLA and ovalbumin; for OVA-specific IgG antibody titers: intramuscular, days 0 and 21, compared to MPLA alone
[4] = tested on: NF-κB and ISRE; assay: NF-κB and ISRE reporter assays (primary screens), statements in words for both assays; format: cell-based; conditions: for activity in NF-κB and ISRE assays (in words): with LPS or IFN-α as primary stimulus, compared to compound 1
Outline: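 Single 5 μM compound (0.05% DMSO). NF-κB: THP1-Blue cells with 10 μg/mL LPS, 20 h, SEAP by absorbance at 630 nm. ISRE: ISRE-bla THP-1 cells with 100 U/mL IFN-α, 16 h, CCF4-AM 465/535 nm ratio. Both normalized to stimulus alone as 100%, compound 1 plus stimulus as 200%.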

[5] = tested on: ISRE; assay: Measurement of ISRE activity in ISRE-bla THP-1 cells (FRET, IFN-α as primary stimulus); format: cell-based; conditions: Homo sapiens, THP-1; for activity at 5 µM: compound 5 μM + IFN-α 100 U/mL, 16 hours, two point normalized: compound 1 + IFN-α = 200%, IFN-α = 100%, mean, read-out: ISRE % Activation; for pEC50: dose response in the presence of IFN-α
Outline: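 Cells at 5×10^4/well in RPMI with 10% dialyzed FBS, treated with compound at 5 μM (0.05% DMSO) plus IFN-α at 100 U/mL (final) for 16 h. CCF4-AM substrate added for 3 h at room temperature. Background-subtracted 465/535 nm emission ratio, 2-point normalized: IFN-α alone 100%, compound 1+IFN-α 200%.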

[6] = Stability of compound 48 in DMSO stock and in assay media; format: physicochemical
Description: However, before proceeding with syntheses of additional acylated analogs, its stability in stock solutions was evaluated since during the assay this compound could behave as a prodrug by undergoing deacetylation to release active compound 1. […] Thus, syntheses of additional acylated analogs were not pursued.

Structure (SMILES) | MTT % Viability [1] [%] | activity at 5 µM [2] [%] | pEC50 ([2]; dose response in the presence of LPS) | systemic toxicity as indicated by behavior change or weight loss [3] | OVA-specific IgG antibody titers [3] | activity in NF-κB and ISRE assays (in words) [4] | activity at 5 µM [5] [%] | pEC50 [5] | incubation with assay media ([6]; assay media, data not shown) | stability of stock in DMSO ([6]; stock in DMSO) | NF-κB or ISRE activity when tested alone ([4]; tested alone, without LPS or IFN-α)
CCOc1ccc(S(=O)(=O)N(C)c2cc(OC)c(Cl)cc2OC)cc1 [Compound 33, N-(4-chloro-2,5-dimethoxyphenyl)-4-ethoxy-N-methylbenzenesulfonamide] | 74.5 | 235 | 6.16 | without demonstrable systemic toxicity | statistically significant increases; also recorded: significant enhancement of antibody titers | equipotent as compound 1 | 215 | 6.08 | – | – | –
CCOc1ccc(S(=O)(=O)N(C(C)=O)c2cc(OC)c(Cl)cc2OC)cc1 [Compound 48, N-(4-chloro-2,5-dimethoxyphenyl)-N-((4-ethoxyphenyl)sulfonyl)acetamide] | 72.0 | – | – | – | – | active | – | – | release of compound 1 | stable | –
CCOc1ccc(S(=O)(=O)Nc2cc(OC)c(Cl)cc2OC)cc1 [Compound 1, N-(4-chloro-2,5-dimethoxyphenyl)-4-ethoxybenzenesulfonamide] | 73.5 | 200 | – | without demonstrable systemic toxicity | statistically significant increases; also recorded: significant enhancement of antibody titers | enhanced their activation; also recorded: retained activity; also recorded: sustained NF-κB and ISRE activation | 200 | 6.18 | – | – | little if any
